Measurements as given in patent publication US20090264469A1, “NOVEL DICARBOXYLIC ACID DERIVATIVES” (BIO-PROJET, priority 2004, published 2009).

Key:
Human S1P3 receptor = target: T1, Human S1P3 receptor (Homo sapiens, UniProt Q99500); assay: GTP-γ-35S binding, agonist activity on S1P3 receptor; assay type: biochemical; details: for EC50: membranes of transfected HEK 293 or CHOK1 cells, [35S]GTP-γ-S binding; for intrinsic activity (i.a.) S1P3: relative to the maximal stimulation elicited by S1P
T1 construct: expressed in transfected cells; host or cells: HEK 293 or CHOK1 cells (membranes)
T1 sequence (Q99500 whole entry): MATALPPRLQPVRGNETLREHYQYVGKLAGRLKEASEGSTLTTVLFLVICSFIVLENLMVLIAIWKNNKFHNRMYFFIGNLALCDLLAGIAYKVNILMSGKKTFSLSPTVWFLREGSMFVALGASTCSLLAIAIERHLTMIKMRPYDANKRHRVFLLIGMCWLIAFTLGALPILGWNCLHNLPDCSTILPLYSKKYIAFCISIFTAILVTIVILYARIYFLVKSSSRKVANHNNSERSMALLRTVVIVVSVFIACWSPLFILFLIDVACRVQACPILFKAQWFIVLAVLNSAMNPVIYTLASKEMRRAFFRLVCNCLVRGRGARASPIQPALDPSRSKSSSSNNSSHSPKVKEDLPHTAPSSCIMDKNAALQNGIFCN
Source text: (§1) Human S1P1-5 receptor subtypes were stably expressed in HEK 293 or CHOK1 cells following transfection with corresponding plasmid constructs. Although the native cells somewhat respond to S1P, the level of expression and responsiveness of the antibiotic-resistant transfected cell lines that were selected is much higher.
(§2) When cultivated cells reached 80% confluence, they were collected and, after lysis, cell membranes were collected by centrifugation and washed in buffer containing antiproteases.
(§3) GTP-γ-35 S binding was performed using ˜5 μg protein of cell membranes suspended in 50 mM tris-HCl pH 7.5 containing 10 mM Mg Cl2, 100 mM NaCl and 10 μM GDP. The radioligand was 0.025 nM [35S] GTP-γ-S and non specific binding determined in the presence of 10 μM non-radioactive GTP-γ-S. S1P and receptor agonists enhance the specific binding whereas inverse agonists reduce it. The maximal stimulation elicited by S1P was taken as a reference to define full or partial agonism and calculate the intrinsic activity (i.a.) of compounds.

Human S1P1 receptor = target: T2, Human S1P1 receptor (Homo sapiens, UniProt P21453); assay: GTP-γ-35S binding, agonist activity on S1P1 receptor; assay type: biochemical; details: for EC50: membranes of transfected HEK 293 or CHOK1 cells, [35S]GTP-γ-S binding; for intrinsic activity (i.a.) S1P1: relative to the maximal stimulation elicited by S1P
T2 construct: expressed in transfected cells; host or cells: HEK 293 or CHOK1 cells (membranes)
T2 sequence (P21453 whole entry): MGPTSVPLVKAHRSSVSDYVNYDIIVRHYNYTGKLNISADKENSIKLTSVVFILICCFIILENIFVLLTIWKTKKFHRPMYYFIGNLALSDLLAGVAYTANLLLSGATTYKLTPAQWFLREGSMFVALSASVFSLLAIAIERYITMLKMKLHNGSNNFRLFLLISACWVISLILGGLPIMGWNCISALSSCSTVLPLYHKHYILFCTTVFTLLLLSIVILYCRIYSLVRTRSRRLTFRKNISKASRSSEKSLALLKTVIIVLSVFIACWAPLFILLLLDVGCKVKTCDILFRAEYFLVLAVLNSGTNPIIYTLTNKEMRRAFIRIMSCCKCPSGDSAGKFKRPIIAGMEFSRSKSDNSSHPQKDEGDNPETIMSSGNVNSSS
Source text: as §1, §2, §3

Human S1P2 receptor = target: T3, Human S1P2 receptor (Homo sapiens, UniProt O95136); assay: GTP-γ-35S binding, agonist activity on S1P2 receptor; assay type: biochemical; details: for EC50: membranes of transfected HEK 293 or CHOK1 cells, [35S]GTP-γ-S binding; for intrinsic activity (i.a.) S1P2: relative to the maximal stimulation elicited by S1P
T3 construct: expressed in transfected cells; host or cells: HEK 293 or CHOK1 cells (membranes)
T3 sequence (O95136 whole entry): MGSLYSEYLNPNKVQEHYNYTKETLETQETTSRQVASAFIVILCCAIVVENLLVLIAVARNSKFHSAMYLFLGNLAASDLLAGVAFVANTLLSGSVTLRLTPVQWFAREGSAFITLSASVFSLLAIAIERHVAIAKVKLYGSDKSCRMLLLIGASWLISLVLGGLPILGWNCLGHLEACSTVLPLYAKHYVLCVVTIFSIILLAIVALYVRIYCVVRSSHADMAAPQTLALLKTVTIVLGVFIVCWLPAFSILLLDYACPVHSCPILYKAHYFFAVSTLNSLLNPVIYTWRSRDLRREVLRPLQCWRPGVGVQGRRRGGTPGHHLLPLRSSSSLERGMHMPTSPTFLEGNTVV
Source text: as §1, §2, §3

circulating lymphocytes = details: in vivo; cited from earlier work
[1] = J. Am. Soc. Nephrol., 13, 1073, 2002; cited from earlier work

Row | SMILES | EC50 (Human S1P3 receptor) [nM] | intrinsic activity (i.a.) S1P3 (Human S1P3 receptor) | EC50 (Human S1P1 receptor) [nM] | intrinsic activity (i.a.) S1P1 (Human S1P1 receptor) | EC50 (Human S1P2 receptor) [nM] | intrinsic activity (i.a.) S1P2 (Human S1P2 receptor) | circulating lymphocytes (circulating lymphocytes) | adverse event [1]
1 | CCCCCCCCCCc1ccc(CNC2CCC(C(=O)O)(C(=O)O)C2)cc1 (centres unmarked) [Example 12, 3-(4-decylbenzylamino)cyclopentane-1,1-dicarboxylic acid] | > 1000 | ~0.3 | 13 | 1 | 5 | 1 | – | –
2 | CCCCCCCCCc1ccc(CNC2CCC(C(=O)O)(C(=O)O)C2)cc1 (centres unmarked) [Example 3, 3-(4-nonylbenzylamino)cyclopentane-1,1-dicarboxylic acid] | > 1000 | ~0.3 | 6 | 1 | 4 | 1 | – | –
3 | CCCCCCCCc1ccc(CCC(N)(CO)CO)cc1 [FTY 720] | – | – | – | – | – | – | decrease | transient asymptomatic bradycardia
